Data set [1] concerns HBV. As to the kind of experiment: Effect of LIPG inhibitor on HBV in Huh7 cell line carrying HBV expression construct (Example 10). It counts as cell-based, hepatitis B virus. The note with it: Huh7 cells, inhibitor 1 μM to 100 μM added five days after construct introduction, one week; depending on the concentration. The protocol: An HBV expression construct (HBV-C: provided by Dr. Yasuhito Tanaka at Nagoya City University) was introduced into Huh7 cell line. Five days after the introduction, an LIPG inhibitor (GSK264220A) was added at 1 μM to 100 μM and the cells were cultured.

In data set [2] the test system is HBV. As to the kind of experiment: shRNA function against HBV infection of fresh human hepatocytes (PHH cells), short-term culture (Example 3). The note with it: for amount of cccDNA: shRNA alone, lentivirus day 0, HBV day 1, collected day 7; for amount of cccDNA, combined use of ETV: shRNA plus entecavir (ETV) 10 nM from day 2, collected day 7 (short-term culture).
Method: Using fresh human hepatocytes (PHH cells) derived from PXB mouse (PhoenixBio Co., Ltd., Hiroshima, Japan), effects of shRNAs against each gene on infection of human hepatocytes with HBV were determined. Experiments were carried out by culturing PHH cells as follows. First, on day 0 of culture, the cells were infected with the lentivirus expressing the shRNA against each of the genes by a conventional method. A serum collected from an HBV-infected chimeric mouse infected with HBV (Genotype C. 5 HBV DNA copies/cell) was added to the cells as an HBV inoculum on day 1 of culture. On day 2 of culture, the cells were washed three times and entecavir (ETV) (10 nM) was added thereto. On day 7 of culture, the cells were collected and the amount of HBV DNA, the amount of HBV cccDNA, and the mRNA level of each gene were determined. The amounts of HBV DNA, HBV cccDNA, and pg RNA were quantified in the same manner as in Example 1.

The next data set deals with DOCK11 gene. As to the kind of experiment: DOCK11 gene expression (mRNA) in Huh 7.5 cells (Example 8). The note with it: Huh7.5 cells, vs cont shRNA.
Data set [3] deals with HBV. Kind of data set: shRNA introduced after established HBV infection of PHHs (Example 6). It counts as cell-based, hepatitis B virus. The note with it: shRNA introduced one week after HBV infection, cultured 3 weeks. As to the method: The effects of an shRNA on the proliferation of HBV when PHHs were infected with HBV and then treated with an shRNA were investigated. One week after PHHs were infected with HBV, the shRNA (SEQ ID NO: 2) against Dock11 gene was introduced and the cells were cultured for 3 weeks with culture medium changes.

In a further data set the test system is HCV. As to the kind of experiment: HCV replication analysis, JFH1-RNA transfected Huh 7.5 cells (Example 8). To be noted: Huh7.5 cells, 24, 48 and 72 hours after introduction of HCV RNA (JFH1-RNA).

Method for DOCK11 gene: The mRNA of DOCK11 gene was quantified by real time PCR according to a conventional method.
The antiviral activity of the shRNA against Dock11 gene was evaluated using a replicon system for JFH1 strain. HCV replication analysis was performed by transfecting Huh 7.5 cells with synthetic JFH1-RNA. Cells in which DOCK11 was constitutively knocked down were prepared by introducing DOCK11 shRNA #2 into Huh 7.5 cells. Cells into which cont shRNA was introduced were used as a control. Huh 7.5 cells into which each shRNA had been introduced were transfected with 1 μg synthetic RNA (JFH1-RNA) using TransIT®-mRNA Transfection Kit (Mirus). Total RNAs were isolated 24, 48 and 72 hours after the transfection using High Pure RNA Isolation Kit (Roche), and cDNAs were synthesized using high-capacity cDNA reverse transcription kit (Applied Biosystems, Carlsbad, Calif.). […] The expression of DOCK11 gene was evaluated by determining the level of mRNA in the same manner as in Example 2.
Method for HCV: The antiviral activity of the shRNA against Dock11 gene was evaluated using a replicon system for JFH1 strain. HCV replication analysis was performed by transfecting Huh 7.5 cells with synthetic JFH1-RNA. Cells in which DOCK11 was constitutively knocked down were prepared by introducing DOCK11 shRNA #2 into Huh 7.5 cells. Cells into which cont shRNA was introduced were used as a control. Huh 7.5 cells into which each shRNA had been introduced were transfected with 1 μg synthetic RNA (JFH1-RNA) using TransIT®-mRNA Transfection Kit (Mirus). Total RNAs were isolated 24, 48 and 72 hours after the transfection using High Pure RNA Isolation Kit (Roche), and cDNAs were synthesized using high-capacity cDNA reverse transcription kit (Applied Biosystems, Carlsbad, Calif.).

Regarding `Cc1oc(S(=O)(=O)N2CCCCC2)cc1NC(=O)Nc1ccccc1` [GSK264220A], in the data set on HBV [1], the “amount of HBV DNA” value was “decreased” and the “amount of HBV cccDNA” value is listed as “decreased”.

Take “DENND2A #2: lentivirus-expressed shRNA against DENND2A gene, SEQ ID NO: 7, used in Examples 3 and 4 (guide CCGGCCAATGAAGGAGAACCCTTATCTCGAGATAAGGGTTCTCCTTCATTGGTTTTTTG)”: in the data set with HBV [2], the “amount of cccDNA” value is reported as “dramatically decreased” and the “amount of cccDNA, combined use of ETV” value was “below the detection sensitivity”. Moreover, the “amount of cccDNA, combined use of ETV” value with HBV [2] (listed as shRNA for DENND2A gene) is given as “below the detection limit”.

As to “DOCK11 #2: lentivirus-expressed shRNA against DOCK11 gene, SEQ ID NO: 2, used in Examples 3, 4, 6, 8, 12 (guide CCGGGTACTAGACACCATATCATTTCTCGAGAAATGATATGGTGTCTAGTACTTTTTG)”, in the data set with HBV [2], the “amount of cccDNA” value is reported as “dramatically decreased” and the “amount of cccDNA, combined use of ETV” value is on record as “below the detection sensitivity”. In addition, the “amount of cccDNA, combined use of ETV” value in the data set with HBV [2] (listed as shRNA for Dock11 gene) was “below the detection limit”. In the data set on DOCK11 gene, the “expression level of DOCK11 gene” value was “decreased”. In the data set on HBV [3], the “cccDNA of HBV” value was “disappear” and the “pgRNA of HBV” value is on record as “disappear”. Besides, the “HCV RNA replication” value in the data set on HCV is “effectively suppressed”.

With “HECW2 #3: lentivirus-expressed shRNA against HECW2 gene, SEQ ID NO: 17, used in Examples 3 and 4 (guide CCGGGCACAATACTTGGAGTCAATTCTCGAGAATTGACTCCAAGTATTGTGCTTTTT)”, in the data set on HBV [2], the “amount of cccDNA” value is “decreased” and the “amount of cccDNA, combined use of ETV” value is on record as “synergistic effect to decrease cccDNA”.

For the compound “LIPG #5: lentivirus-expressed shRNA against LIPG gene, SEQ ID NO: 14, used in Examples 3 and 4 (guide CCGGTTACACGGATGCGGTCAATAACTCGAGTTATTGACCGCATCCGTGTAATTTTTG)”, in the data set with HBV [2], the “amount of cccDNA” value is “decreased” and the “amount of cccDNA, combined use of ETV” value is “synergistic effect to decrease cccDNA”.

Values taken from patent publication US10709727B2, “Antiviral drugs” (priority 2015, dated 2020).
